The experiment addresses T1, recombinant human cGAS (aa147-522) (Homo sapiens, UniProt Q8N884).
T1 construct: recombinant human cGAS (aa147-522); His6-SUMO (cleaved yes); made in house; host or cells: E. coli BL21/pLys
The experiment in a line: In vitro inhibition assay of cGAS activity (ATP consumption, KinaseGlo Max). The format is biochemical. The note with it: Table 2, read-out: cGAS Inhibition Results IC50. Put shortly:
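De-tagged recombinant human cGAS (aa147-522, 1.5 μg/mL) was incubated 20 min at 37 °C with herring testis DNA, 6.6 μM ATP and 0.1 mM GTP in Tris pH 7.5/MgCl2 buffer plus serial compound dilutions. Remaining ATP was read by KinaseGlo Max luminescence, and IC50 was fitted from % ATP consumption versus log concentration.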

Bounds are passed on as bounds.

Usually IC50 stands for the concentration that inhibits the measured activity by half.

T1 sequence (Q8N884 147-522): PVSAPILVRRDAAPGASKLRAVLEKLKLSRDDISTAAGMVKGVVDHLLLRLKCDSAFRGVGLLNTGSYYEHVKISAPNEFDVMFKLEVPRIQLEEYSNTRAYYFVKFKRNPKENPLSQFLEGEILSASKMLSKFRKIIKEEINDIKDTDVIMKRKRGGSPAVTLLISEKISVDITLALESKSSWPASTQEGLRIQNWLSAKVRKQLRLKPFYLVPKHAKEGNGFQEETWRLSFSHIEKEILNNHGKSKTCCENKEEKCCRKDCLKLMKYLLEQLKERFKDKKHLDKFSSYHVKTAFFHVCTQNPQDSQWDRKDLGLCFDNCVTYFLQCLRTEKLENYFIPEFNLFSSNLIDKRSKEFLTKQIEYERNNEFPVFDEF

As for `NS(=O)(=O)CCNc1cc(-c2cn[nH]c2)c2c(Cl)cc(Cl)cc2n1` [I-263], the IC50 is greater than 30 µM. Regarding `NS(=O)(=O)CCNc1cc(-c2cn[nH]c2)c2cc(Cl)cc(Cl)c2n1` [I-264], the IC50 is less than 2 µM. To `NS(=O)(=O)CCNc1cc(-c2cn[nH]c2)c2cc(C(F)(F)F)ccc2n1` [I-265] belongs greater than 30 µM; to `Cc1ccc2c(-c3cn[nH]c3)cc(NCCS(N)(=O)=O)nc2c1` [I-266], greater than 30 µM; to `Cc1cccc2nc(NCCS(N)(=O)=O)cc(-c3cn[nH]c3)c12` [I-267], greater than 30 µM. As for `CC(C)(C)c1ccc2c(-c3cn[nH]c3)cc(NCCS(N)(=O)=O)nc2c1` [I-268], the IC50 was greater than 30 µM.

`CC(C)c1ccc2c(-c3cn[nH]c3)cc(NCCS(N)(=O)=O)nc2c1` [I-269]: the IC50 is greater than 30 µM. The figure for `O=C(O)CCc1cc(-c2cn[nH]c2)c2ccc(Cl)c(Cl)c2n1` [I-270, 3-(7,8-dichloro-4-(1H-pyrazol-4-yl)quinolin-2-yl)propanoic acid] is less than 2 µM; for `OCCCc1cc(-c2cn[nH]c2)c2ccc(Cl)c(Cl)c2n1` [I-271, 3-(7,8-dichloro-4-(1H-pyrazol-4-yl)quinolin-2-yl)propan-1-ol] it is 2 to 30 µM. The figure for `O=C1NC(=O)C(CCCc2cc(-c3cn[nH]c3)c3ccc(Cl)c(Cl)c3n2)S1` (stereo not drawn) [I-272, 5-(3-(7,8-dichloro-4-(1H-pyrazol-4-yl)quinolin-2-yl)propyl)thiazolidine-2,4-dione] is 2 to 30 µM; for `O=C(O)C1CCC=C(c2cc(-c3cn[nH]c3)c3ccc(Cl)c(Cl)c3n2)C1` (stereo not drawn) [I-273, 3-(7,8-dichloro-4-(1H-pyrazol-4-yl)quinolin-2-yl)cyclohex-3-ene-1-carboxylic acid] it is 2 to 30 µM; for `O=C1NC(=O)/C(=C\CCc2cc(-c3cn[nH]c3)c3ccc(Cl)c(Cl)c3n2)S1` [I-274, (E)-5-(3-(7,8-Dichloro-4-(1H-pyrazol-4-yl)quinolin-2-yl)propylidene)thiazolidine-2,4-dione] it is 2 to 30 µM. Regarding `Fc1ccc(Cc2cc(-n3ccnc3)c3ccc(Br)cc3n2)cc1` [I-275], the IC50 was greater than 30 µM. Take `O=C1NC(=O)/C(=C\c2cc(-n3ccnc3)c3ccc(Cl)c(Cl)c3n2)S1` [I-276, (E)-5-((7,8-dichloro-4-(1H-imidazol-1-yl)quinolin-2-yl)methylene)thiazolidine-2,4-dione]: the IC50 was less than 2 µM. To `Clc1ccc2c(-n3ccnc3)cc(OCc3ccccc3)nc2c1` [I-277, 2-(benzyloxy)-7-chloro-4-(1H-imidazol-1-yl)quinoline] belongs 2 to 30 µM; to `Clc1ccc2c(-n3ccnc3)cc(Oc3ccccc3)nc2c1` [I-278], 2 to 30 µM; to `Clc1ccc2c(-n3ccnc3)cc(OCCN3CCOCC3)nc2c1` [I-279], greater than 30 µM. As to `CCOc1cc(-n2ccnc2)c2ccc(Cl)cc2n1` [I-280], the IC50 is greater than 30 µM. The figure for `O=C(O)c1cccc(COc2cc(-n3ccnc3)c3ccc(Cl)cc3n2)c1` [I-281] is 2 to 30 µM.

For the compound `O=C(O)c1cccc(Oc2cc(-n3ccnc3)c3ccc(Cl)cc3n2)c1` [I-282], the IC50 lay within 2 to 30 µM. Turning to `O=C(O)c1ccccc1Oc1cc(-n2ccnc2)c2ccc(Cl)cc2n1` [I-283], the IC50 was greater than 30 µM.

With `Clc1ccc2c(-n3ccnc3)cc(OCCCN3CCOCC3)nc2c1` [I-284], the concentration for half-maximal inhibition (IC50) was greater than 30 µM.

On to `C[C@H](Nc1cc(-c2cn[nH]c2)nc2c(Cl)c(Cl)ccc12)C(=O)O` [I-285], for which the IC50 was less than 2 µM.

As for `C[C@@H](Nc1cc(-c2cn[nH]c2)nc2c(Cl)c(Cl)ccc12)C(=O)O` [I-286], the concentration for half-maximal inhibition (IC50) was less than 2 µM.

Take `O=C(O)CNc1cc(-c2cn[nH]c2)nc2c(Cl)cc(Cl)cc12` [I-288]: the IC50 is less than 2 µM. Take `OCCNc1cc(-c2cn[nH]c2)nc2c(Cl)c(Cl)ccc12` [I-289, 2-((7,8-dichloro-2-(1H-pyrazol-4-yl)quinolin-4-yl)amino)ethan-1-ol]: the 50% inhibitory concentration (IC50) is 2 to 30 µM. Regarding `C[C@@H](Nc1cc(-c2cn[nH]c2)nc2c(Cl)c(Cl)ccc12)C(=O)OC(C)(C)C` [I-290], the IC50 lay within 2 to 30 µM.

The values above are taken from patent US11873291B2, “Quinoline cGAS antagonist compounds” (ImmuneSensor Therapeutics, Inc., priority 2020, dated 2024).
